Data taken from patent publication US6190848A, “Color photographic element containing ballasted triazole derivative and inhibitor releasing coupler” (priority 1999, dated 2001).

Assay: Single layer film element contrast (gamma) reduction by DI(A)R couplers, KODAK FLEXICOLOR C-41
Conditions: DIR tested at 0.055 mmol/m^2, relative to non-inhibitor containing check
Text: The mild inhibitor fragments that are used in this invention are defined as those that cause less than a 45% gamma reduction, or more preferably less than a 40% gamma reduction, relative to a non-inhibitor containing check when coated as the following single layer film element on a cellulose triacetate film support (coverages are in g/m^2):
Overcoat Gelatin at 2.79 and 0.02 bis-vinylsulfonemethylether
Imaging Layer Gelatin at 2.79
Magenta Image Coupler M-1 (dispersed at 80% by
weight in tricresyl phosphate and 20% by weight
N,N-dibutyl-2-butoxy-5-t-octylaniline) at 0.692
DIR being tested at 0.055 mmol/m^2 ( dispersed in twice
its weight in N,N-dibutyllauramide)
Green sensitized AgBrI at 1.08
Samples of each element were given a stepped exposure and processed in the KODAK FLEXICOLOR™ (C-41) process as described in British Journal of Photography Annual, 1988, pp 196-198. Contrast of the elements was determined using the maximum slope between any two density points.

Structure (SMILES) | % Contrast Reduction [%]
CCCCCCCCCCCCCCOc1ccccc1NC(=O)c1cc(Oc2ccc(CSc3nnnn3Cc3ccc(OC)cc3)cc2[N+](=O)[O-])c2ccccc2c1O [CDIR-1] | -55.4
CCC(Oc1ccc(C(C)(C)CC)cc1C(C)(C)CC)C(=O)Nc1ccc(N2N=C(N3CCCC3)C(Sc3nnnn3-c3ccccc3)C2=O)cc1 (stereo not shown) [CDIR-2] | -67.1
CCCCCCCCCCCCCCOc1ccccc1NC(=O)c1cc(Oc2ccc([N+](=O)[O-])cc2CN(C(=O)Sc2nnnn2-c2ccccc2)C(C)C)c2ccccc2c1O [CDIR-3] | -75.7
CCCCCCCCCCCCCCOc1ccccc1NC(=O)c1cc(Oc2ccc(CSc3nnnn3-c3ccccc3)cc2[N+](=O)[O-])c2ccccc2c1O [CDIR-4] | -77.1
CCCCCCCCCCCCCCOc1ccccc1NC(=O)c1cc(Oc2ccc(CSc3nnnn3-c3ccccc3)cc2[N+](=O)[O-])c2ccccc2c1O [CDIR-5] | -70.5
CCCCCCCCCCCCCCOc1ccccc1NC(=O)c1cc(Sc2nnnn2-c2ccccc2)c2ccccc2c1O [CDIR-6] | -75.4
CCCCCCCCCCCCCCCCS(=O)(=O)Nc1ccc(Cl)c(NC(=O)C(Oc2ccc([N+](=O)[O-])cc2CN(CC)C(=O)Sc2nnnn2-c2ccccc2)C(=O)C(C)(C)C)c1 (stereo not shown) [CDIR-7] | -63.9
CCCCCCOC(=O)c1nn(C2C(=O)N(c3ccc(NC(=O)C(CC)Oc4ccc(C(C)(C)CC)cc4C(C)(C)CC)cc3)N=C2C)nc1C (stereo not shown) [CDIR-8] | -49.2
CCCCCCCCCCC(Oc1ccc(S(=O)(=O)c2ccc(O)cc2)cc1)C(=O)Nc1ccc(N2N=C(C)C(n3nc(C)c(C(=O)OCCCCCC)n3)C2=O)cc1 (stereo not shown) [CDIR-9] | -50.1
CCCCCCCCCCCCCCCCS(=O)(=O)Nc1ccc(Cl)c(NC(=O)C(C(=O)C(C)(C)C)n2nc(C)c(C(=O)OCCCCCC)n2)c1 (stereo not shown) [CDIR-10] | -53.8
CCCCCCCCCCCCCCCCS(=O)(=O)Nc1ccc(Cl)c(NC(=O)C(C(=O)C(C)(C)C)n2ncc(SCC(=O)OCCCCCC)n2)c1 (stereo not shown) [CDIR-11] | -58.6
CCCCCCCCCCCCCCCCS(=O)(=O)Nc1cc(CSc2nnnn2CC(=O)OCCC)ccc1Oc1cc(C(N)=O)c(O)c2ccccc12 [IDIR-1] | -34.5
CCCCCCCCCCCCCCCCS(=O)(=O)Nc1ccc(Cl)c(NC(=O)C(Oc2ccc([N+](=O)[O-])cc2CN(CC)C(=O)Sc2nnnn2CC(=O)OCCC)C(=O)C(C)(C)C)c1 (stereo not shown) [IDIR-2] | -25.3
CCCCCCCCCCCCOc1ccc(C)cc1NC(=O)c1cc(Oc2ccc(CSc3nnnn3CC(=O)OCCC)cc2[N+](=O)[O-])c2ccccc2c1O [IDIR-3] | -24.5
CCCOC(=O)Cn1nnnc1SC1C(=O)N(c2ccc(NC(=O)C(CC)Oc3ccc(C(C)(C)CC)cc3C(C)(C)CC)cc2)N=C1N1CCCC1 (stereo not shown) [IDIR-4] | -22.6
CCCCCCCCCCCCOC(=O)C(C)OC(=O)c1ccc(Cl)c(NC(=O)C(C(=O)Nc2cc(C(=O)OC(C)C(=O)OCCCCCCCCCCCC)ccc2Cl)n2nnc3cc(Cl)c(Cl)cc32)c1 (stereo not shown) [IDIR-7] | -20.0
CCCCCCCCCCCCCCOc1ccccc1NC(=O)c1cc(Sc2nnnn2CC)c2ccccc2c1O [IDIR-8] | -2.4

Assay: Bilayer photographic element: interimage (Cg/Cb+g) and relative green sensitivity
Conditions: Table II, IDIR-2 in blue layer; IEM or CIEM at 7.2×10^-3 mmol/m^2
Experimental: Bilayer photographic elements were prepared by coating the following layers on a cellulose triacetate film support (coverages are in g/m^2). Unless otherwise noted, all comparative and inventive compounds were dispersed in twice their own weight of N,N-dibutyllauramide:
Layer 1 (Antihalation Layer): black colloidal elemental silver at 0.34 and gelatin at2.41.
Layer 2 (Receiver Layer): gelatin at 2.79, CDIR-2 at 0.03, coupler M-1 (dispersed as described previously) added at 0.045, comparison material (CIEM) or IEM added at 7.2×10^-3 mmol/m^2 (this corresponds to 1.67 mmol per mole silver as AgBr or 0.96 mmol per mole of silver) dispersed in twice its own weight of N,N-dibutyllauramide and 0.81 green sensitized AgIBr tabular emulsion.
Layer 3 (Interlayer): gelatin at 0.64, ILS-1 at 0.11 and FD-1 at 0.11.
Layer 4 (Causer Layer): gelatin at 2.79, coupler Y-1 at 0.91, 0.79 blue sensitized AgIBr tabular emulsion and the DIR at 0.11 mmol/m^2.
Layer 5 (Overcoat): gelatin at 2.79 and 0.02 bis-vinylsulfonemethylether.
Samples of each element were given a stepped exposure of either green light only or blue and green light combined and processed in the KODAK FLEXICOLOR (C-41) process as described in British Journal of Photography Annual, 1988, pp196-198. Contrast of the elements was determined using the maximum slope between any two density points. In this test, the ratio of the contrast of the green only exposure to the contrast of the green of a blue and green exposure (Cg /Cb+g) is a measure of the interimage. A higher ratio means more inhibition originating from the blue and affecting the green record.
Another set of bilayer experiments were generated in a similar manner to show the effect of IEM laydown (as mmol per mol silver) and DIR variations.

Structure (SMILES) | Cg /Cb+g (interimage ratio)
CCCCCCCC(=O)Nc1ccc2[nH]nnc2c1 [CIEM-1] | 1.25
CCCCC(CC)CNC(=O)c1ccc2[nH]nnc2c1 (stereo not shown) [CIEM-2] | 1.26
CCCCCCCCCOC(=O)c1nc[nH]n1 [CIEM-3] | 1.23
CCCCCCSCCOC(=O)c1nc[nH]n1 [CIEM-4] | 1.19
CCCCCCCCc1nc2ccccc2[nH]1 [CIEM-5] | 1.19
O=S(=O)(NCCc1ccccc1)c1ccc2[nH]nnc2c1 [CIEM-6] | 1.24
CCCSCCCOC(=O)c1ccc2[nH]nnc2c1 [CIEM-7] | 1.26
CCCCCCCCCCOC(=O)CSc1nnc[nH]1 [CIEM-8] | 1.22
O=C(Nc1cccc(Oc2ccccc2)c1)c1ccc2[nH]nnc2c1 [CIEM-9] | 1.30
O=C(c1ccc2[nH]nnc2c1)N1CCCc2ccccc21 [CIEM-10] | 1.18
CCCCc1ccc(NC(=O)c2ccc3[nH]nnc3c2)cc1 [CIEM-11] | 1.26
O=C(Oc1ccccc1)c1ccc2[nH]nnc2c1 [CIEM-12] | 1.24
CCC(C)(C)c1ccc(OCCCCC(=O)Nc2ccc3c(c2)nnn3C(=O)N2CCOCC2)c(C(C)(C)CC)c1 [CIEM-13] | 1.30
CCC(C)(C)c1ccc(OCCCCC(=O)Nc2ccc3c(c2)nnn3C)c(C(C)(C)CC)c1 [CIEM-14] | 1.31
CCCCCCCCCCCCCCCc1cccc(OCCCCNC(=O)c2ccc3[nH]nnc3c2)c1 [CIEM-15] | 1.26
CCCCCCCCCCCCSc1nc2ccccc2[nH]1 [CIEM-16] | 1.27
CCC(C)(C)c1ccc(OCCCCNC(=O)CSc2nc3ccccc3[nH]2)c(C(C)(C)CC)c1 [CIEM-17] | 1.23
CCCCCCCCCC(=O)Nc1ccc2[nH]nnc2c1 [IEM-B] | 1.39
CCCCCCCCCCCC(=O)Nc1ccc2[nH]nnc2c1 [IEM-C] | 1.64
CCCCCCCCCCC(Oc1ccc(S(=O)(=O)c2ccc(O)cc2)cc1)C(=O)Nc1ccc2[nH]nnc2c1 (stereo not shown) [IEM-D] | 1.49
CCCCCCCCCCCCSc1nc[nH]n1 [IEM-H] | 1.44

Same assay, conditions: bilayer, --N--H group removed

Structure (SMILES) | interimage effect
CCC(C)(C)c1ccc(OCCCCC(=O)Nc2ccc3c(c2)nnn3C(=O)N2CCOCC2)c(C(C)(C)CC)c1 [CIEM-13] | the effect is insufficient
CCC(C)(C)c1ccc(OCCCCC(=O)Nc2ccc3c(c2)nnn3C)c(C(C)(C)CC)c1 [CIEM-14] | the effect is insufficient
